System: citrated whole blood (intrinsic pathway of coagulation)
Assay: Whole Blood (WB) gelation test
Type: biochemical
Settings: ellagic acid without Nickel or any other metal
Description: The aim was to assess how quickly the activators clot fresh whole blood.
These clotting time assays evaluate the ability of a material to active the intrinsic pathway to form a fibrin clot in whole blood after recalcification of citrated blood. Fresh citrated blood is used to preserve clotting factors.
WB Gelation Test: The WB gelation test uses a larger volume of blood compared to a small volume ACT tube to accommodate biomaterials, e.g., gelatins, collagen, thus allowing the WB gelation test to assess interactions between activators and biomaterials. […] To address this limitation, the WB Gelation Test was developed with a heated enclosure and larger tubes to accommodate larger volumes of blood and greater amounts of activators. Setup includes a plexiglass enclosure with a heating unit to perform the testing at 37° C. A temperature sensor in the enclosure maintained the temperature at 37° C. ±1° C. The enclosure contains an orbital rotator to gently mix the blood to with the other materials being tested while keeping it warm. The calcium saline and tube rocker are also in the enclosure. The enclosure has a front hinge to allow access from the front of the unit.
In exemplary procedures, citrated whole blood (4 ml) was added to a 15 ml conical tube with activator/biomaterial and mixed, then calcium saline solution (2 ml) was added to the tube and the timer is started. […]

SMILES: O=c1oc2c(O)c(O)cc3c(=O)oc4c(O)c(O)cc1c4c23 [Ellagic acid, ellagic acid]
- time over which no clotting was observed: over 1200 minutes
